Entries after “also recorded” stand apart in the source; their conditions may differ.
Key:
[1] = test system: 2C-like genes (Zscan4, MuERV-L/MERVL, Dux) in ESCs (E14, R1); experiment: qPCR for 2C-like specific genes in ESCs; format: cell-based, mouse
Protocol: All treatments including APH, HU, UV, ATRi, ATMi and Chk1i were added in to fresh ESC medium and the cells were kept in 37° C. and 3% 02 tension for overnight (16-17 hrs) unless mentioned in each particular result section. APH was used at various concentrations ranging from 0.3 uM to 6 uM that is mentioned in each experiment in order to induce mild to acute replication stress response. Similarly, HU was used at 0.1 mM-3 mM. ATMi (KU-55933) and ATRi (VE 822) were used at the concentration of 10 uM and 1 uM respectively. Moreover, Chk1i (UCN-01) at the concentration of 100 nM was used. UV radiation was performed at the dosage ranging from 2 to 10 J/m2. For induction of ETAA1-AAD expression, Dox was used at the concentration of 1 μg/mL for 48 hrs.
RNA was extracted using RNeasy mini kit (QIAGEN), quantified by NanoDrop spectrophotometer and cDNA was prepared from 2 μg total DNA-depleted RNA using SuperScript™ III reverse transcriptase kit (Invitrogen cat #18080-093) following manufacturer's instructions. qPCR assay performed based on standard protocol using 10× SsoFast™ EvaGreen® Supermix or later 1× LightCycler 480 SYBR Green I Master (Roche, 04707516001), 0.5 μM primer mix and 5 ng of cDNA. GAPDH was used as internal control to normalise the qPCR data following ΔΔCt method, 10 μM primer mix and a total amount of cDNA corresponding to 5 ng of starting RNA for each reaction.

pZscan4-Emerald ESCs = experiment: FACS for Emerald-GFP and CASPASE-3 (apoptosis); format: cell-based, mouse; conditions: mostly at high concentration
Text: ESCs were fixed and permeabilized using Cytoperm/Cytofix kit (BD Biosciences), and subsequently stained for one hour at room temperature with Alexa Fluor® 647 anti-H2AX-Phosphorylated (Ser139) antibody (Biolegend) or P-CHK1-PE conjugated antibody (cell signaling 12268). Cells were washed and acquired on a FACS Calibur instrument or Attune NxT (Thermo Fisher Scientific). For Emerald-GFP acquisition, cells were trypsinized, collected and subsequently acquired without fixation. Cell cycle profiles were acquired after incubation with DAPI (4′,6-diamidino-2-phenylindole) overnight. For Caspase3 FACS analysis after fixation and permeabilization, Cleaved Caspase3 antibody were used for one hr at RT followed by washes and one hr incubation in donkey anti rabbit secondary antibody. […]

C[C@@]1(CO)[C@H](O)CC[C@@]2(C)[C@H]1CC[C@H]1C[C@@H]3C[C@@]12CC[C@]3(O)CO [APH, aphidicolin]
expression of key 2C-like genes in DUX KO ESCs ([1]; APH treatment): could not induce
main 2C-like genes, qPCR validation of profiling ([1]; APH treatment): significant upregulation
expression of 2C-like genes in ATR Seckel ESCs ([1]; APH treatment, unlike normal wild type ESC): milder increase; also recorded: mild increase
expression of Zscan4 and MuERV-L (QPCR and FACS) ([1]; ESC lines E14 and R1, time and dosage-dependent): significantly upregulated
cell apoptosis (CASPASE-3) (pZscan4-Emerald ESCs): mild cell apoptosis

Source: patent US20200131473A1, “METHOD OF GENERATING 2 CELL-LIKE STEM CELLS” (IFOM FONDAZIONE ISTITUTO FIRC DI ONCOLOGIA MOLECOLARE, priority 2017, published 2020)
